Literature values, collected in patent US20240269084A1, “DELAYED RELEASE COMPOSITIONS OF DIMETHYL FUMARATE” (Zim Laboratories Limited, priority 2021, published 2024).
Counter-ions that a name gives are not always drawn.

Solubility in water: highly soluble in water
Compound: COC(=O)/C=C/C(=O)OC [Dimethyl fumarate, dimethyl (E) butenedioate]
